Km data for 1 compound are collected here from publication PMC10222279, “Detection of Acetaminophen in Groundwater by Laccase-Based Amperometric Biosensors Using MoS2 Modified Carbon Paper Electrodes” (Sensors (Basel, Switzerland), 2023).

Each structure is given as a SMILES string.

In this experiment the test system is T1, TvL.
T1 construct: gene LCC2
As to conditions: read-out: KMapp / Free; free enzyme; assay as for activity: 50 mM citric/phosphate buffer pH 4, 420 nm; unit not in table grid, µM. An excerpt: ABTS oxidation kinetics, non-linear Michaelis-Menten fit on TvL

Turning to `CCn1c(=NN=c2sc3cc(S(=O)(=O)O)ccc3n2CC)sc2cc(S(=O)(=O)O)ccc21` [ABTS, 2,2′-azino-bis(3-ethylbenzthiazoline-6-sulphonic acid)], the Km was found to be 42.1 ± 3.14 µM.
